Reference: patent US20080076739A1, “Methods for treating arthritis using triheterocyclic compounds” (Gemin X Biotechnologies Inc., priority 2005, published 2008)
Structures can show the parent of a compound that is named as a salt. Where two headings read alike, the source gives them in different places. Values belong to the molecule of their own block, whether it stands above or below them.

Key:
[1] = Solubility (filtration, LC/MS)
Protocol: To determine whether a compound is soluble in a solution, the solution was filtered on 0.2 μM polytetrafluoroethylene filters (Whatman Inc. Clifton, N.J., USA) and the compound concentration in the filtrate was measured by LC/MS and compared to the expected concentration.
The column used was XTerra MS C18: 50×2.1 mm, 3.5 mm column at 20° C. Samples were injected and separated under the following conditions: The mobile phase “A” consisted of 5 mM ammonium formate, 0.1% formic acid in water and mobile phase “B” consisted of 5 mM ammonium formate, 0.1% formic acid in methanol. […] The Mass Spectrometer system consisted of a Waters ZQ2000 single quadrupole mass spectrometer (Waters, Milford, Mass., USA) equipped with an Electrospray Ionization Source (ES). The mass detector was operated in positive ion mode (ES+) and Selected Ion Recording mode (SIR). Compounds were detected at m/z equal to their respective molecular weight plus 1.

[2] = system: C33A cervical carcinoma cells; experiment: Cell viability by cellular ATP levels (ViaLight), C33A; assay type: cell-based; settings: Homo sapiens
Protocol: (§1) One day after plating, the cells were treated with various concentrations of Compound 1 Tartrate. Stock solutions of the Compound 1 Tartrate were prepared in dimethyl sulfoxide (Sigma-Aldrich Inc., St. Louis, Mo., USA), diluted in the recommended media and then added to the cells. The total dimethyl sulfoxide on the cells was 1%. […] The results were plotted relative to untreated control cells, which were set at a value of 100.
(§2) As depicted in Table 4, these compounds were efficient in decreasing cellular ATP levels in H1299 and C33A cancer cell lines. […], these compounds are believed to have utility in the in vivo methods of the invention, i.e., treatment and prevention of cancer and viral infections, respectively. It should be noted that, although this cell-based assay is believed to be indicative of anti-oncogenic activity in vivo, it is not the only useful assay for evaluating the anti-oncogenic activity of Triheterocyclic Compounds of the invention. In addition, the anti-viral and other biological activity of compounds of the invention can be determined and evaluated in other assay systems known to the skilled artisan.

[3] = system: H1299 human non-small cell lung cancer cells; experiment: Cell viability by cellular ATP levels (ViaLight), H1299; assay type: cell-based
Protocol: as §1, §2

[4] = system: H460 non-small cell lung cancer cell line; experiment: Cell viability by cellular ATP levels (ViaLight), H460; assay type: cell-based; settings: Homo sapiens, NCI-H460; H460, NSCLC; ATP levels 72 h post-treatment; read-out: IC50 of Compound 1 tartrate
Protocol: as §1

[5] = system: SW-480 human adenocarcinoma cell line; experiment: Cell viability by cellular ATP levels (ViaLight), SW-480; assay type: cell-based; settings: SW480, SW-480, Colorectal, ATP levels 72 h post-treatment, read-out: IC50 of Compound 1 tartrate
Protocol: as §1

[6] = system: cancer cell lines H1299 and C33A; normal cell lines HMEC and MRC-5; experiment: Cellular ATP levels, cancer cell lines compared with normal cell lines; assay type: cell-based
Protocol: as §1

[7] = system: PC-3 human prostatic carcinoma cell line; experiment: Cell viability by cellular ATP levels (ViaLight), PC-3; assay type: cell-based; settings: PC-3, Prostate, ATP levels 72 h post-treatment, read-out: IC50 of Compound 1 tartrate
Protocol: as §1

[8] = system: A549 human lung carcinoma cell line; experiment: Cell viability by cellular ATP levels (ViaLight), A549; assay type: cell-based; settings: A549, NSCLC, ATP levels 72 h post-treatment, read-out: IC50 of Compound 1 tartrate
Protocol: as §1

[9] = system: ADR-RES human breast cancer cell line; experiment: Cell viability by cellular ATP levels (ViaLight), NCI/ADR-RES; assay type: cell-based; settings: Breast (multi-drug resistant), ATP levels 72 h post-treatment, read-out: IC50 of Compound 1 tartrate
Protocol: as §1

[10] = system: HMEC normal mammary epithelial cells; experiment: Cell viability by cellular ATP levels (ViaLight), HMEC; assay type: cell-based; settings: Homo sapiens, Normal Breast, ATP levels 72 h post-treatment, read-out: IC50 of Compound 1 tartrate
Protocol: as §1

[11] = system: C33A human cervical cancer cells; experiment: Growth of C33A cervical tumors in SCID mice; assay type: in vivo, CB17 SCID/SCID mice; settings: 4.5 mg/kg IV once a day for five days (FIG. 3)
Protocol: Viability was examined by staining with trypan blue (Gibco, NY, USA) and only flasks with cell viability greater than 95% were used for in vivo studies.
(§3) There were three treatment groups of ten mice each: (a) a negative control group, (b) a positive control group and (c) a group treated with Compound 1 Tartrate.
(§4) Treatments started on day fourteen after C33A cells transplantation. Compound 1 Tartrate was administered IV once daily for five consecutive days at a dose of 4.5 mg/kg. Compound 1 Tartrate was prepared fresh daily in a vehicle solution of 5% Dextrose (Abbot Laboratories, QC, Canada) and 2% polysorbate 20 (Sigma, St. Louis, Mo., USA). The negative control group was treated with vehicle alone. The injection volume for both Compound 1 Tartrate group and the negative control group was 150 μl.
(§5) Observation continued for 40 days after initial tumor implantation.

[12] = system: B16-F1 mouse melanoma cell line; experiment: Cell viability by cellular ATP levels (ViaLight), B16-F1; assay type: cell-based; settings: B16-F1, Murine Melanoma, ATP levels 72 h post-treatment, read-out: IC50 of Compound 1 tartrate
Protocol: as §1

[13] = system: OVCAR-3 human ovarian carcinoma cell line; experiment: Cell viability by cellular ATP levels (ViaLight), OVCAR-3; assay type: cell-based; settings: OVCAR-3, Ovary, ATP levels 72 h post-treatment, read-out: IC50 of Compound 1 tartrate
Protocol: as §1

[14] = system: MCF-7 human breast cancer cell line; experiment: Cell viability by cellular ATP levels (ViaLight), MCF-7; assay type: cell-based; settings: MCF7, MCF-7, Breast, ATP levels 72 h post-treatment, read-out: IC50 of Compound 1 tartrate
Protocol: as §1

[15] = molecular target: T1, calf intestinal alkaline phosphatase (Bos taurus, UniProt P19111); experiment: Conversion of phosphate pro-drug by calf intestinal alkaline phosphatase; assay type: in vitro ADME; settings: 15 μM, 0.02 U/100 μL enzyme, pH 7.4, up to 120 minutes (FIG. 5)
T1 construct: purchased Roche Diagnostic Inc
T1 sequence (P19111 20-506): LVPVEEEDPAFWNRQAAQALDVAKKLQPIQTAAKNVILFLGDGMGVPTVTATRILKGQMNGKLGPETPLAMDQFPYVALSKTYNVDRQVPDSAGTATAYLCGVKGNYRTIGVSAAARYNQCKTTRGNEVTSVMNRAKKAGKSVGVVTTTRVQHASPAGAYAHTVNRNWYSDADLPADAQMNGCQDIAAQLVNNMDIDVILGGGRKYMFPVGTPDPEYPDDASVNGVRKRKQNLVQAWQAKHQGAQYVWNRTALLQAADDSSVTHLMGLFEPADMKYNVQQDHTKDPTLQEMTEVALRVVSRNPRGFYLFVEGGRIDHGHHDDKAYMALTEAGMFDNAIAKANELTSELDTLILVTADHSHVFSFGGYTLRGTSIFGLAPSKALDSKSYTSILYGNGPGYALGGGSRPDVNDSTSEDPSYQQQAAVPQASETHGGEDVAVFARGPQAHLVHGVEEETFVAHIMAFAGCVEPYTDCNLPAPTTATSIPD
Protocol: (§6) The conversion into biologically active drug of phosphate pro-drugs by calf intestinal alkaline phosphatase and human placental alkaline phosphatase was measured in vitro using purified enzymes. Purified calf intestinal alkaline phosphatase (Roche Diagnostic Inc. Laval, Quebec, Canada) or human placental alkaline phosphatase (Sigma-Aldrich Canada Ltd. Oakville, Ontario, Canada) was added at a concentration of 0.02 U/100 μL to a solution containing 15 μM of Compound 66, 20 mM Tris-HCl, pH 7.4 and 0.9% NaCl. The solutions were incubated for 30, 60 or 120 minutes. A solution containing 15 μM of Compound 66, 20 mM Tris-HCl, pH 7.4 and 0.9% NaCl was used as a reference (time=0 minutes). To each solution, an equal volume (100 μL) of ice-cold acetonitrile was added, and then the mixture was vortexed and transferred to glass vials. A standard concentration curve of the pro-drug and the drug was prepared in 10 mM Tris-HCl, pH 7.4, 0.45% NaCl and 50% acetonitrile. All samples were immediately analyzed by LC/MS.

[16] = molecular target: T2, human placental alkaline phosphatase (Homo sapiens, UniProt P05187); experiment: Conversion of phosphate pro-drug by human placental alkaline phosphatase; assay type: in vitro ADME; settings: 15 μM, 0.02 U/100 μL enzyme, pH 7.4, up to 120 minutes (FIG. 4)
T2 construct: purchased Sigma-Aldrich Canada Ltd
T2 sequence (P05187 23-506): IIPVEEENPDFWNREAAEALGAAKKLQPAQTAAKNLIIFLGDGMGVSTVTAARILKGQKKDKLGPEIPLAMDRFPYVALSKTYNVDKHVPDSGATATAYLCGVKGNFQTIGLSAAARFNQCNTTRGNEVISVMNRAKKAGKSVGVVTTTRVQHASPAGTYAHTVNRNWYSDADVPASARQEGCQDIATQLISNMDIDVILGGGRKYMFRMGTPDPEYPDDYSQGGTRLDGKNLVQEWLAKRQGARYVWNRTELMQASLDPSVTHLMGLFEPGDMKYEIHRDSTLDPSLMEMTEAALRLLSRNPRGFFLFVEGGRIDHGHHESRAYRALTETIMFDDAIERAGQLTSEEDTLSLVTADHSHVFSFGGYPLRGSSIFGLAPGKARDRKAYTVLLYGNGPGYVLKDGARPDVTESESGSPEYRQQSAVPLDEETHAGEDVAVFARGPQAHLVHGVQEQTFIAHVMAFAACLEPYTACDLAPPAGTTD
Protocol: as §6

[17] = system: human prostatic adenocarcinoma cancer PC3 cells; experiment: Growth of PC3 prostatic tumors in SCID mice; assay type: in vivo; settings: 5 consecutive intravenous injections; Compound 1 Mesylate Salt 4.84 μMoles/Kg; Compound 66 4.84 or 14.51 μMoles/Kg (FIG. 6)
Protocol: The human prostatic adenocarcinoma cancer PC3 cells were purchased from the American Type Culture Collection (ATCC). These cells were confirmed to be free of mycoplasma infection. Cells were maintained in the Roswell Park Memorial Institute (RPMI), supplemented with 10% inactivated fetal bovine serum and 1% penicillin-streptomycin-L-Glutamine, under 5% carbon dioxide (CO2) at 37° C. For prostatic-tumor induction, cells were grown lower than 70% confluence in complete medium and then collected with trypsin (Bio Whittaker, Rockland, Me., USA). Cells were then centrifuged and washed 2 times in phosphate buffer solution (PBS) and resuspended in PBS at 1.5×10^6 cells/0.1 mL. PC3 cells were then transplanted subcutaneously into the flank of SCID mice (Charles River Laboratories, Wilmington, Mass., USA), as a suspension of tumor cells (1.5×10^6 cells in 100 μL PBS), under a laminar airflow hood. Eleven (11) days later, the size of each tumor was measured. […] Relative tumor size and volume was calculated as follows: length (cm)×[width (cm)]^2/2. […]

[18] = Shelf stability (precipitation) of formulated compound; assay type: physicochemical; settings: 72 hours after preparation; 0.6 mg/mL in 9.6% polyethylene glycol 300, 0.4% polysorbate 20 and 5% dextrose
Protocol: Compound 1 Tartrate salt solubility is equal to 0.1 mg/mL. […] This increase in solubility has a positive impact on the shelf stability of formulated Compound 1.

[19] = Body weight and deaths of SCID mice bearing C33A tumors; assay type: in vivo, CB17 SCID/SCID mice; settings: cisplatin 4 mg/kg IP; days 29 and 32, group of ten mice
Protocol: as §3, §4, §5

[20] = C-33-A, read-out: IC50 (μM) C33A, Effect on Cancer Cells Viability
[21] = NCI-H1299, read-out: IC50 (μM) H1299, Effect on Cancer Cells Viability
[22] = C-33-A, C33A, cellular ATP levels as in Example 2, read-out: IC50 (μM) C33A, Effect on Cancer Cells Viability
[23] = NCI-H1299, H1299, cellular ATP levels as in Example 2, read-out: IC50 (μM) H1299, Effect on Cancer Cells Viability

Solubility in water (in words) ([1]; water): poorly soluble in water
Compound: COC1=CC(c2cc3ccccc3[nH]2)=N/C1=C\c1[nH]c(C)cc1C [Compound 1]

Compound: CCOC(=O)COC1=CC(c2cc3ccccc3[nH]2)=N/C1=C\c1[nH]c(C)cc1C [Compound 53]
IC50 [2, 20]: 10.2 µM
IC50 [3, 21]: 10.6 µM

IC50 [4]: 300 nM
IC50 [5]: 200 nM
IC50 [7]: 200 nM
IC50 [8]: 400 nM
IC50 ([2]; C-33A, Cervix, ATP levels 72 h post-treatment compared to untreated cells, read-out: IC50 of Compound 1 tartrate): 0.2 µM
IC50 [9]: 400 nM
IC50 [12]: 60 nM
IC50 [13]: 200 nM
IC50 [14]: 600 nM
IC50 ([3]; NCI-H1299, H1299, NSCLC, ATP levels 72 h post-treatment, read-out: IC50 of Compound 1 tartrate): 0.5 µM
Compound: COC1=CC(c2cc3ccccc3[nH]2)=N/C1=C\c1[nH]c(C)cc1C [Compound 1 tartrate]
Lowering of ATP levels in cancer cell lines H1299 and C33A compared with normal cell lines HMEC and MRC-5 ([6]; 0.5 μM, 72 hours after treatment (FIG. 1)): significantly more effective at lowering ATP levels
Efficacy in decreasing cellular ATP levels, cancer cell lines versus HMEC ([6]; various concentrations, ten cancer cell lines versus HMEC normal mammary epithelial cell line): greater efficacy in decreasing cellular ATP levels in the cancer cell lines
IC50 [10]: 4000 nM
Reduction in tumor growth compared to vehicle [11]: statistically significant (p<0.0001) reduction in tumor growth

IC50 [2, 22]: 1.11 µM
IC50 [3, 23]: 1.04 µM
Compound: COC1=CC(c2cc3ccccc3n2C(=O)Nc2ccc(N(C)C)cc2)=N/C1=C/c1[nH]c(C)cc1C [Compound 52]

Compound: COC(=O)CCc1c(C)[nH]c(/C=C2/N=C(c3cc4ccccc4[nH]3)C=C2OC)c1C [Compound 63]
IC50 [2, 20]: 0.548 µM
IC50 [3, 21]: 0.753 µM

Compound: COC1=CC(c2cc3ccccc3n2C(=O)CC(C)(C)c2c(C)cccc2OP(=O)(O)O)=N/C1=C/c1[nH]c(C)cc1C [Compound 66]
Conversion of pro-drug into Compound 1 [15]: convert a fraction of the pro-drug
Conversion of pro-drug into Compound 1 [16]: convert a fraction of the pro-drug
Solubility, fold greater than Compound 1 Tartrate [1]: 100 fold
Growth of prostatic tumors in mice [17]: significantly reduce the growth of prostatic tumors

Precipitation of the formulation [18]: no evidence of precipitation
Compound: COC1=CC(c2cc3ccccc3[nH]2)=N/C1=C\c1[nH]c(C)cc1C [Compound 1 Mesylate Salt]
Growth of prostatic tumors in mice [17]: significantly reduce the growth of prostatic tumors

Compound: N.N.[Cl][Pt][Cl] [cisplatin]
Deaths [19]: Two mice died

IC50 [2, 22]: 0.93 µM
IC50 [3, 23]: 1.11 µM
Compound: COc1ccc(NC2=CC(c3cc4ccccc4[nH]3)=N/C2=C\c2[nH]c(C)cc2C)cc1 [Compound 61]
